According to patent US6743917B2, “Camptothecin analogs and methods of preparation thereof” (University of Pittsburgh, priority 1993, dated 2004):
Where two headings read alike, the source gives them in different places.

Legend:
[1] = Kinetics of lactone ring opening in PBS buffer (HPLC); type: physicochemical; conditions: for % Lactone at Equilibrium: PBS; for half-life: pH 7.4
Description: Kinetics of Lactone Ring Opening. […] Mi and Burke (1994), supra.
FIG. 21 summarizes the stability of DB172 in phosphate buffered saline (PBS) buffer, pH 7.4, at physiological temperature. Shown in the figure are plots of lactone fraction as a function of time for DB172 at different concentrations. Drug was added to solution from a concentrated DMSO stock solution such that the volumes of DMSO were very small (less than 0.5%) relative to the volume of water. […] At the more dilute drug concentrations the drug hydrolyzes as previously observed for other camptothecins containing the ^α-hydroxy-^δ-lactone moiety.

[2] = human; for t1/2: blood
[3] = Kinetics of lactone ring opening in whole human blood (HPLC); conditions: Whole Blood, physiological temperature;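 also: hydrolytic opening of the camptothecin lactone ring followed over time by quantitative C18 reversed-phase HPLC in human whole blood at physiological temperature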
[4] = Equilibrium binding to DMPC small unilamellar vesicles (fluorescence anisotropy titration); conditions: for KDMPC overall association constant: PBS buffer at PH 7.4 and 37° C.
[5] = Equilibrium binding to DMPG small unilamellar vesicles (fluorescence anisotropy titration); conditions: PBS buffer at PH 7.4 and 37° C.
[6] = earlier studies; cited from earlier work
[7] = test system: DC-3F (hamster lung) cells; assay: Cytotoxicity assay, DC-3F cells (sulforhodamine B protein content); type: cell-based; conditions: Mesocricetus auratus, DC3F; DC-3F cells, sulforhodamine B; read-out: Inhibition of cancer cell growth IC50, DC-3F
Description: (§1) Cultures were fixed with trichloroacetic acid and then stained for 30 minutes with 0.4% sulforhodamine B dissolved in 1% acetic acid. Unbound dye was removed by acetic acid washes, and the protein-bound dye was extracted with an unbuffered Tris base [tris(hydroxy-methyl)aminomethan] for determination of absorbance at 570 nm in a 96-well microplate reader. The experiments were carried out in duplicate using five to six concentrations of the drugs tested. Data were analyzed via computer software.

[8] = test system: 833K (human teratocarcinoma) cells; assay: Cytotoxicity assay, 833K cells (sulforhodamine B protein content); type: cell-based; conditions: Homo sapiens; 833K cells, sulforhodamine B; read-out: Inhibition of cancer cell growth IC50, 833K
Description: as §1

[9] = test system: HL-60 (human promyelocytic leukemic) cells; assay: Cytotoxicity assay, HL-60 cells (XTT-microculture tetrazolium assay); type: cell-based; conditions: Homo sapiens; HL-60 cells, 72 hr incubation, XTT; read-out: Inhibition of cancer cell growth IC50, HL-60
Description: The camptothecin derivatives were evaluated for their cytotoxic effects on the growth of HL-60 (human promyelocytic leukemic), 833K (human teratocarcinoma) and DC-3F (hamster lung) cells in vitro. The cells were cultured in an initial density of […]. They were maintained in a 5% CO2 humidified atmosphere at 37° C. in RPMI-1640 media (GIBCO-BRL Grand Island, N.Y.) containing penicillin 100 μ/ml)/streptomycin (100 ^μg/ml) (GIBCO-BRL) and 10% heat inactivated fetal bovine serum. The assay was performed in duplicate in 96-well microplates. The cytotoxicity of the compounds toward HL-60 cells following 72 hr incubation was determined by XTT-microculture tetrazolium assay. Scudiero, D. A., et al., Cancer Res., 48, 4827 (1988), the disclosure of which is incorporated herein by reference. 2′, 3′-bis(-methoxy-4-nitro-5-sulfheny)-5-[(phenylamino)carbonyl]-2H-tetrazolium hydroxide (XTT) was prepared at 1 mg/ml in prewarmed (37° C.) medium without serum. Phenazine methosulfate (PMS) and fresh XTT were mixed together to obtain 0.075 mM PMS-XTT solution (25 ^μl of the stock 5 mM PMS was added per 5 ml of 1 mg/ml XTT). Fifty ^μl of this mixture was added to each well of the cell culture at the end of 72 hr incubation. After incubation at 37° C. for 4 hr., absorbance at 450 nm and 630 nm was measured with a microplate reader (EL340, Bio-Tek Instruments, Inc., Winooski, Vt.).

[10] = in vitro; conditions: human
[11] = Kinetics of lactone ring opening in RBC (HPLC); type: in vitro ADME, human
Description: Kinetics of Lactone Ring Opening. […] Mi and Burke (1994), supra. […] Louis, Mo.) was used.

[12] = Kinetics of lactone ring opening in PBS containing HSA (HPLC); conditions: HSA (PBS containing 30 mg/ml HSA)
[13] = Self-association in aqueous solution (fluorescence intensity with time); type: physicochemical; conditions: lactone drug forms added to solution, time=0
Description: FIG. 22 summarizes the dependence of the fluorescence intensity of DB172 as a function of time and pH. In these experiments DB172 is added to solution as the lactone form. At low pH where the drug remains in the lactone form, the change in intensity with time is the lowest. At pH 10, where the conditions are such that the lactone more readily hydrolyzes and forms carboxylate, a significant change in fluorescence intensity is observed. It appears that a pH 10 nonfluorescent micellular aggregates composed of lactone disassemble and form open-ring carboxylate forms that tend to exist in solution as monomeric fluorescent species.
FIG. 23 explores the fluorescence intensity of DB172 as a function of concentration. Following the addition of low concentration of lactone drug to solution, the change in fluorescence signal is the greatest whereas at high drug concentration (10 ^μM) the fluorescence intensity changes are minimal. It is believed that a low concentration the micellular aggregates of DB172 displaying reduced fluorescence can disassemble and form fluorescent carboxylate species, but at higher drug concentration the equilibrium favors that the agent remains in the aggregated or reduced fluorescence state. […] Once again this decrease in fluorescence that occurs at reduced pH appear to be due to the formation of lactone aggregates of reduced fluorescence quantum yield.
FIGS. 21 through 24 are consistent with the unusual ability of DB172 lactone to self-associate and form micelles at micromolar drug concentrations. The micellular DB172 aggregates display a reduced fluorescence. If conditions allow for hydrolysis to occur such that carboxylate forms, there is an increase in the fluorescence intensity of the sample. FIG. 25 compares the relative change in the fluorescence emission of a sample following addition of lactone drug forms to solution. In these experiments the values for each drug are normalized to a value of 1 at time equals to zero, and the ability of the various analogs to disassociate in the event the drugs are aggregated at time=0 is monitored with time. […]

| SMILES | % Lactone at Equilibrium [1] | % Lactone at Equilibrium [3] | KDMPC overall association constant [4] [M⁻¹] | KDMPG overall association constant [5] [M⁻¹] | % lactone at equilibrium in whole human blood [6] [%] | IC50 [7] [nM] | IC50 [8] [nM] | IC50 [9] [nM] | t1/2 [3] [min] | % Lactone at Equilibrium [12] | t1/2 [12] [min] | other results |
| --- | --- | --- | --- | --- | --- | --- | --- | --- | --- | --- | --- | --- |
| CC[C@@]1(O)C(=O)OCc2c1cc1n(c2=O)Cc2c-1nc1ccccc1c2[Si](C)(C)CCCN(C)C.Cl [DB-104, 7-(3-dimethylaminopropyldimethylsilyl) camptothecin hydrochloride salt] | 7.5 +/− 0.2% |  |  |  |  |  |  |  |  |  |  | t1/2 ([1]; buffer): 24.1 ± 1.0 min; t1/2 [2]: 77.2 ± 1.8 min |
| CCc1c2c(nc3ccc(O)cc13)-c1cc3c(c(=O)n1C2)COC(=O)[C@]3(O)CC [SN-38, 10-hydroxy-7-ethylcamptothecin, reference compound] |  | 19.5% | 260 | 160 | 19.5 |  |  |  |  |  |  | % Lactone at Equilibrium ([3]; listed as SN 38): 20.2 +/− 1.9%; t1/2 [2]: 50.7 ± 1.4 min |
| CCc1c2c(nc3ccc(OC(=O)N4CCC(N5CCCCC5)CC4)cc13)-c1cc3c(c(=O)n1C2)COC(=O)[C@]3(O)CC [IRT, irinotecan, reference compound] |  | 21.0% |  |  | 21.0 | 372 | 487 | 270 |  |  |  | lactone level at equilibrium in whole blood, fold greater than 9-aminocamptothecin [2]: approximately 40 fold |
| CCC1(O)C(=O)OCc2c1cc1n(c2=O)Cc2c-1nc1ccc(N)cc1c2[Si](C)(C)C (stereo in doubt) [Example 8, (20S)-10-amino-7-trimethylsilylcamptothecin] | 10.5 +/− 0.3% |  | 820 | 360 |  | 0.72 | 5.7 | 0.52 |  |  |  | half-life ([1]; buffer): 31.3 min; % Lactone at Equilibrium [2]: 12.3 +/− 0.0%; half-life ([10]; blood): 37.6 min |
| CC[C@@]1(O)C(=O)OCc2c1cc1n(c2=O)Cc2c-1nc1ccc(O)cc1c2[Si](C)(C)CCCCl [DB-158, (20S)-10-hydroxy-7-(3-chloropropyldimethylsilyl) camptothecin] | 11.3 +/− 1.8% | 17.8 +/− 2.0% |  |  |  |  |  |  | 65.3 ± 9.0 | 17.2 +/− 0.7% | 48.0 ± 0.9 | % Lactone at Equilibrium ([11]; RBC): 50.2 +/− 1.7%; t1/2 ([11]; RBC): 67.7 ± 8.5 min |
| CC[C@@]1(O)C(=O)OCc2c1cc1n(c2=O)Cc2cc3c(CN(C)C)c(O)ccc3nc2-1 [Topotecan, topotecan, reference compound] |  | 8.61 +/− 0.4% |  |  | 11.9 |  |  |  |  | 7.06 +/− 0.3% |  | % Lactone at Equilibrium ([3]; listed as topotecan): 8.6%; K value for DMPC liposomes, times less than that for camptothecin ([4]; relative to camptothecin): ~10 times; lactone level at equilibrium in whole blood, fold greater than 9-aminocamptothecin [2]: 20 fold; half-life ([10]; whole blood): 30.9 min |
| CC[C@@]1(O)C(=O)OCc2c1cc1n(c2=O)Cc2c-1nc1ccccc1c2[Si](C)(C)CCCCl [DB-148, (20S)-7-(3-chloropropyldimethylsilyl)camptothecin] | 12.0 +/− 0.5% | 2.2 +/− 3.6% |  |  |  |  |  |  | 85.6 ± 9.2 | 2.7 +/− 0.2% | 16.0 ± 0.2 | % Lactone at Equilibrium ([11]; RBC): 43.4 +/− 0.8%; t1/2 ([11]; RBC): 59.7 ± 2.9 min |
| CC[C@@]1(O)C(=O)OCc2c1cc1n(c2=O)Cc2c-1nc1ccccc1c2CC[Si](C)(C)C [DB-172, (20S)-7-[(2-Trimethylsilyl)ethyl]camptothecin] |  | 24.1 +/− 2.6% | 10500 | 10600 |  |  |  |  | 106.6 ± 10.8 | 4.3 +/− 1.0% | 86.1 ± 10.3 | lactone ring stability at high drug concentrations ([1]; PBS buffer, pH 7.4, physiological temperature): marked stabilization of the lactone ring; K value for DMPC, fold greater than camptothecin ([4]; relative to camptothecin): ~100 fold; self-association / aggregation state in solution [13]: self-associates to an exceptionally high degree |
| CCC1(O)C(=O)OCc2c1cc1n(c2=O)Cc2c-1nc1ccccc1c2[Si](C)(C)C(C)(C)C (stereo in doubt) [Example 2, (20S)-7-tert-butyldimethylsilylcamptothecin] | 12.2 +/− 0.4% |  |  |  |  | 2.9 | 1.2 | 0.12 |  |  |  | half-life ([1]; buffer): 27.9 min; % Lactone at Equilibrium ([11]; human): 59.4 +/− 0.0%; half-life ([11]; human): 79.4 min; % Lactone at Equilibrium [2]: 1.0 +/− 0.1%; half-life ([10]; blood): 71.9 min |
